Source: patent US12377106B2, “Piperidinylpyrazine-carboxamide compounds for treating and preventing cancer and for degrading BTK” (NURIX THERAPEUTICS, INC., priority 2021, dated 2025)
“Also recorded” adds a separate entry of the source.

Key:
[1] = target: T1, Aiolos (Homo sapiens, UniProt Q96SW2+Q9UKT9); assay: Aiolos degradation in the patient; assay type: in vivo; conditions: DLBCL patient, 300 mg
T1 construct: Compound 149 also degraded Ikaros and Aiolos; endogenous in cells
Method: The patient's response was checked at 8 weeks and 16 weeks. […] Gradual BTK degradation was observed until day 8 day of receiving the 300 mg dose of Compound 149, wherein the maximum BTK degradation was achieved on the 8th day. Consistent with its design, Compound 149 also degraded Ikaros and Aiolos which is responsible for the compound's immunomodulatory activity. […] In the 16-week assessment image, maximum standard uptake value (Max SUV) reduced from 17.6 at screening to 2.5 at the 16-week assessment time with the Deauville five-point scale (5PS; Barrington et al., 2010, Eur J Nucl Med Mol Imaging 37 (10): 1824-33) reducing from 5 to 2.

[2] = Plasma concentrations of compound 149 after once daily oral dosing; assay type: in vivo, human; conditions: all patients, once daily oral 100 mg or 200 mg
Method: (§1) Compound 149 was administered to human patients in a Phase 1a/lb trial investigating safety and tolerability in relapsed and refractory B cell malignancies. Compound 149 was administered as a once daily oral dose first in an accelerated Phase 1a dose escalation starting at 100 mg on Day 1. The first dose levels are explored in a single patient cohort until a grade 2 adverse event has been observed. Thereafter, a traditional 3+3 escalation design is used. This 100 mg starting dose was predicted to provide similar exposure as that observed in non-human primate studies. Once a dose is selected based on all safety, efficacy, pharmacokinetic, and pharmacodynamic data available, the trial will expand in up to five expansion cohorts.

[3] = system: BTK; assay: Flow cytometry assay for BTK degradation in patient circulating B cells (CD19+CD3-), Phase 1a/1b trial; assay type: in vivo, human
Method: as §1
Plasma levels of Bruton's tyrosine kinase were measured by flow cytometry in circulating B cells, including disease cells and provided in FIG. 2. This mean fluorescence intensity directly correlates with the levels of BTK protein observed in a Western blot. […] The patient's BTK levels start at different levels yet, the treatment results in the same level of degradation by Day 15, which is the first measurement after steady state concentration is achieved.
The 100 mg patient achieved greater than 80% BTK degradation at steady state. All patients at the 200 mg dose level achieved greater than 90% degradation at steady state.
The data is summarized in Table 3 below which provides the average percent BTK degradation during the last 2 weeks of the first cycle (namely Days 15, 22, and 29). In Cohort 2 (200 mg), well above 90% of BTK degradation was achieved during the steady state.
Following informed consent, peripheral blood was obtained from all patients for baseline and post Compound 149 therapy assessment of BTK and Ikaros degradation. Patient blood (5 mL) was drawn and immediately fixed in a 5 mL CytoChex™ BCT tube and stored at ambient temperature until assessment via flow cytometry. Blood samples were analyzed within 3 days post sample collection at Precision for Medicine. Additional blood was also drawn into 8 mL BD Vacutainer® CPT™ Cell Preparation Tube with Sodium Citrate. Peripheral blood mononuclear cells (PBMCs) were processed, and viability frozen according to manufacturer's protocol.
For flow staining, 1 mL blood was treated with 1×BD PharmLyse to facilitate red blood cell lysing. Remaining leukocytes were washed with staining buffer (SB) containing Dulbecco's Phosphate Buffered Saline (DPBS) without Calcium or Magnesium, 1% bovine serum albumin (BSA), 10 mM HEPES, 1 mM EDTA, and 0.01% sodium azide. Cell pellet was stained with fluorophore-conjugated cell surface markers antibodies against CD45, CD3, CD4, CD8, CD14, CD16, CD19 and CD56 prepared in BD Brilliant Stain buffer for 25 minutes at room temperature.
Following cell surface staining, cells were washed twice with SB and then fixed and permeabilized for one hour at room temperature with eBioscience FoxP3/Transcription Factor Staining Buffer set according to the manufacturer's instructions. Washed cells were then stained with unconjugated BTK antibody made in 1× Permeabilization buffer) for 30 minutes. This was followed by another 30-minute incubation with anti-rabbit Alexa488 secondary antibody also prepared in 1× Permeabilization buffer for BTK detection. After incubation, the cells were washed twice with 1× Permeabilization Buffer and then resuspended in SB. Control samples containing fluorescence minus two markers (FM2) were used for background controls and were stained for all surface markers in the panel excluding BTK.
The samples were transferred to BD TruCount tubes before acquisition on a BD LSR Fortessa using predetermined BD FACS Diva software (v8.0) application settings. Data analysis was performed using FlowJo software (v10).
Single lymphocytes were gated for B cells (CD19+CD3−), and the geometric mean fluorescence intensity (MFI) of BTK was calculated. The MFI of B cells in FM2 control was used to quantify background staining. […]

[4] = average of patients 1, 2, 3, 4, 6 (100 mg and 200 mg)
[5] = average of patients with data (100 mg and 200 mg)
[6] = patient 1 (CLL), 100 mg once daily oral
[7] = patient 2 (CLL), 200 mg once daily oral
[8] = patient 3 (MCL), 200 mg once daily oral
[9] = patient 4 (WM), 200 mg once daily oral
[10] = patient 6 (SLL), 200 mg once daily oral

T1 sequence (Q9UKT9 whole entry): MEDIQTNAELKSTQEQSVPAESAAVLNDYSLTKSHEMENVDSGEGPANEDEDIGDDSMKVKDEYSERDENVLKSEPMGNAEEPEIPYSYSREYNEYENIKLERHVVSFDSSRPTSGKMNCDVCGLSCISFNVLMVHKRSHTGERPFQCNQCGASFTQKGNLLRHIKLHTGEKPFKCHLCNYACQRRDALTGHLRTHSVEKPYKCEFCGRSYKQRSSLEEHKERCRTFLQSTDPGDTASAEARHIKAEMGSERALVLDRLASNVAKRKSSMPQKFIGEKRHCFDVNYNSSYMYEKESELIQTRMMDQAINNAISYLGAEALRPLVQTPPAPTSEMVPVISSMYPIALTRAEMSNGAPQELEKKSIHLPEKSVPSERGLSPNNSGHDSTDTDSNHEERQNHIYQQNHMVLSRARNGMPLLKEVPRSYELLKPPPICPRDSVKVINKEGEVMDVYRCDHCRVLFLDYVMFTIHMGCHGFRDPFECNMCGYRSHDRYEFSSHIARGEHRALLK
T1 sequence (Q96SW2 whole entry): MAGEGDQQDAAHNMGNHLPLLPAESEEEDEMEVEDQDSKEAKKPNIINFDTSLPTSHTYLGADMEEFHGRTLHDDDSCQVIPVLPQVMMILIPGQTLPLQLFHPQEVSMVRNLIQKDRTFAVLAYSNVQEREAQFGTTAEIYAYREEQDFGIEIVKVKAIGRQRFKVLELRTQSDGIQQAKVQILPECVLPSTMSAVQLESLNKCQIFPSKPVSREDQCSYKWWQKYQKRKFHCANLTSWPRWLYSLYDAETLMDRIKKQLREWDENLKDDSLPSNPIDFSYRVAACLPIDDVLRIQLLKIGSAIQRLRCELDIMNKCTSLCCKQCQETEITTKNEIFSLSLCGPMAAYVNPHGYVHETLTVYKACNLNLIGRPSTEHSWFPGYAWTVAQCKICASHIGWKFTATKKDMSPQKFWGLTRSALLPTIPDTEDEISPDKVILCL
T1 sequence (Q16531 whole entry partner): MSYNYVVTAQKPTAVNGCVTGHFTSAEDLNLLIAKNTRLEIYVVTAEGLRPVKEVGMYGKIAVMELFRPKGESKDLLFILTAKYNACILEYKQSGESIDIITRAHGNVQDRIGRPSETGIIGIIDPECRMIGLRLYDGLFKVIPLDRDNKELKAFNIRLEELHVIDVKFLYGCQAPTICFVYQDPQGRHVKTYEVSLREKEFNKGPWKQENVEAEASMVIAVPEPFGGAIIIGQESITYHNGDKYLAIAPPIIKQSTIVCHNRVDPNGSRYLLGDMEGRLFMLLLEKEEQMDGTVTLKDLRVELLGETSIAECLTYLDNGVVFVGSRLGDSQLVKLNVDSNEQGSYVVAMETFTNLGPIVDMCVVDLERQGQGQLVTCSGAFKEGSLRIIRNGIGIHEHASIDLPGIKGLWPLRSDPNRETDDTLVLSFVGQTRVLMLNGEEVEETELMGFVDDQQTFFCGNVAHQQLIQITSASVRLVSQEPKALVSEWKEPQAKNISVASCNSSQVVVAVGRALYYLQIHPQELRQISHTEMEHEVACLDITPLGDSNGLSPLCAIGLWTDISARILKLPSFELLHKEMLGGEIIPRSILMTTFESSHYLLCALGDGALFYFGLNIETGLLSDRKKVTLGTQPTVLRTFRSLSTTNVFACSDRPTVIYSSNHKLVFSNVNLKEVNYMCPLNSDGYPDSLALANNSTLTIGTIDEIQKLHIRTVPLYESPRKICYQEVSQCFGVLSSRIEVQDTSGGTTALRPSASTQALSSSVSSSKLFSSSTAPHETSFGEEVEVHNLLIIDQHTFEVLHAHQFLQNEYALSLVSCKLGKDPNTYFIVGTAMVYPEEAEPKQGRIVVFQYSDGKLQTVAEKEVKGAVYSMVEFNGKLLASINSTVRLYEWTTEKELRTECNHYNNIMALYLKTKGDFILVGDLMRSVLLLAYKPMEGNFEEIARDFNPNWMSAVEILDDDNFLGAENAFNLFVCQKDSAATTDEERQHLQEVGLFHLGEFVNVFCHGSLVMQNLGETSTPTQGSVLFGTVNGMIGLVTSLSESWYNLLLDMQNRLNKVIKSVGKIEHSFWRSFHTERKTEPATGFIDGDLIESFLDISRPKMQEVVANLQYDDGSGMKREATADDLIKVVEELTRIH

SMILES: NC(=O)c1ncc(N2CCCCC2)nc1Nc1ccc(C2CCN(C[C@@H]3CCN(c4ccc5c(c4)C(=O)N(C4CCC(=O)NC4=O)C5=O)C3)CC2)cc1 (stereo partly shown) [Compound 149]
- Aiolos degradation [1]: degraded
- steady state plasma concentrations achieved by [2]: ≤ 8 days
- day on which maximum BTK degradation was achieved ([3]; DLBCL patient, 300 mg, BTK MFI in CD19+ B cells, FIG. 8): 8 days
- duration of BTK degradation ([3]; DLBCL patient, 300 mg, FIG. 8): sustained through day 29
- duration of BTK degradation ([3]; after steady state Cycle 1 Day 15, prior to starting Cycle 2): sustained through Cycle 1 Day 29
- level of BTK protein in circulating B cells (BTK MFI) ([3]; all patients treated, once daily oral regimen): dramatically decreases the level of BTK protein in all patients treated; also recorded: time-dependent decrease of BTK levels
- % BTK Degraded, Day 2, Average [3, 4]: 56.5%
- % BTK Degraded, Day 8, Average [3, 4]: 80.4%
- % BTK Degraded, Day 22, Average [3, 5]: 92.1%
- % BTK Degraded, Day 29, Average [3, 5]: 90.1%
- % BTK Degraded, Day 15, Average ([3]; average of patients with data (100 mg and 200 mg), steady state Cycle 1 Day 15): 90.1%
- BTK Degradation, Day 2 [3, 6]: 62.8%
- BTK Degradation, Day 8 [3, 6]: 76.9%
- BTK Degradation, Day 15 [3, 6]: 78.0%
- BTK Degradation, Day 22 [3, 6]: 85.5%
- BTK Degradation, Day 29 [3, 6]: 82.0%
- BTK Degradation, Day 56 [3, 6]: 81.4%
- BTK Degradation, Avg. Steady State ([3]; patient 1 (CLL), 100 mg once daily oral, average of Days 15, 22 and 29): 81.8%
- BTK Degradation, Day 2 [3, 7]: 75.1%
- BTK Degradation, Day 8 [3, 7]: 90.5%
- BTK Degradation, Day 15 [3, 7]: 96.1%
- BTK Degradation, Day 22 [3, 7]: 95.4%
- BTK Degradation, Day 29 [3, 7]: 96.1%
- BTK Degradation, Day 56 [3, 7]: 96.0%
- BTK Degradation, Avg. Steady State ([3]; patient 2 (CLL), 200 mg once daily oral, average of Days 15, 22 and 29): 95.9%
- BTK Degradation, Day 2 [3, 8]: 74.0%
- BTK Degradation, Day 8 [3, 8]: 92.7%
- BTK Degradation, Day 15 [3, 8]: 94.6%
- BTK Degradation, Day 22 [3, 8]: 95.4%
- BTK Degradation, Day 29 [3, 8]: 92.3%
- BTK Degradation, Day 56 [3, 8]: 94.7%
- BTK Degradation, Avg. Steady State ([3]; patient 3 (MCL), 200 mg once daily oral, average of Days 15, 22 and 29): 94.1%
- BTK Degradation, Day 2 [3, 9]: 63.6%
- BTK Degradation, Day 8 [3, 9]: 56.8%
- BTK Degradation, Day 15 [3, 9]: 91.5%
- BTK Degradation, Avg. Steady State ([3]; patient 4 (WM), 200 mg once daily oral, only Day 15 available): 91.5%
- BTK Degradation, Day 2 [3, 10]: 6.9%
- BTK Degradation, Day 8 [3, 10]: 85.1%
- BTK degradation at 24 hours after the initial dose ([3]; patients 1, 2, 3 and 4, 100 mg or 200 mg): 62.8-75.1%
- BTK degradation at steady state ([3]; the 100 mg patient): greater than 80%
